Source: ChEMBL document CHEMBL5360658, “Discovery of MK-8768, a Potent and Selective mGluR2 Negative Allosteric Modulator” (ACS Med Chem Lett, 2023)
pEC50, pIC50: −log10 of the molar value. ≈ marks a conversion by molar mass, not a printed value.

Key:
[1] = molecular target: Metabotropic glutamate receptor 2 (Homo sapiens, UniProt Q14416); test: Negative allosteric modulation at human mGluR2 receptor stably expressed in DHFR null CHO cells co-expressing Galpha16 assessed as effect on intracellular calcium flux measured after 5 min by Fluo-4AM dye based FLIPR analysis; type: functional, cell-based
[2] = Solubility of the compound at pH 7; type: physicochemical; conditions: buffer
P-gp (ABCB1) = P-gp (ABCB1) (Rattus norvegicus, UniProt P43245); test: Substrate activity at rat P-gp […] in […] LLC-MDR1 cells assessed as efflux ratio of apparent permeability across basolateral to apical over apical to basolateral side; type: ADME, cell-based, LLC-MDR1 cell; conditions: LLC-PK1
[3] = Apparent permeability in […] LLC-MDR1 cell; type: ADME, cell-based; conditions: LLC-PK1
[4] = Oral bioavailability in rat; type: ADME, organism-based; conditions: in vivo
[5] = molecular target: Voltage-gated inwardly rectifying potassium channel KCNH2 (Homo sapiens, UniProt Q12809); test: Displacement of [35S]-MK-499 from hERG expressed in HEK293 cells […]; type: toxicity, cell-based
[6] = molecular target: T1, Nuclear receptor subfamily 1 group I member 2 (Homo sapiens, UniProt O75469); test: Agonist activity at PXR (unknown origin)
T1 sequence (O75469 whole entry): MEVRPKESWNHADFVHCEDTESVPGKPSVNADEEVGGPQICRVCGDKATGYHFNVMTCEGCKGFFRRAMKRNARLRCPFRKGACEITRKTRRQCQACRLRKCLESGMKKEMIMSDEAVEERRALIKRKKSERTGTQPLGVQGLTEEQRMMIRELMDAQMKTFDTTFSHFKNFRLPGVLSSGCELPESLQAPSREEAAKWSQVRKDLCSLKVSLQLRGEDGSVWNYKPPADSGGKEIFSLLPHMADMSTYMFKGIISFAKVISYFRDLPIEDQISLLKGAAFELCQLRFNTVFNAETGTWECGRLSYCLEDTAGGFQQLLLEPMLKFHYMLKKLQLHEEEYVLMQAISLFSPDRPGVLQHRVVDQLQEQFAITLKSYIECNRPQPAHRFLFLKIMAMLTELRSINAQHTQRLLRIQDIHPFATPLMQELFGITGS

PXR (NR1I2) = molecular target: T2, PXR (NR1I2) (Homo sapiens, UniProt O75469); test: Agonist activity at PXR (unknown origin) assessed as maximal efficacy at 30 uM
T2 sequence (O75469 whole entry): T1 sequence (O75469 whole entry)

Metabotropic glutamate receptor 2, sequence (Q14416 whole entry): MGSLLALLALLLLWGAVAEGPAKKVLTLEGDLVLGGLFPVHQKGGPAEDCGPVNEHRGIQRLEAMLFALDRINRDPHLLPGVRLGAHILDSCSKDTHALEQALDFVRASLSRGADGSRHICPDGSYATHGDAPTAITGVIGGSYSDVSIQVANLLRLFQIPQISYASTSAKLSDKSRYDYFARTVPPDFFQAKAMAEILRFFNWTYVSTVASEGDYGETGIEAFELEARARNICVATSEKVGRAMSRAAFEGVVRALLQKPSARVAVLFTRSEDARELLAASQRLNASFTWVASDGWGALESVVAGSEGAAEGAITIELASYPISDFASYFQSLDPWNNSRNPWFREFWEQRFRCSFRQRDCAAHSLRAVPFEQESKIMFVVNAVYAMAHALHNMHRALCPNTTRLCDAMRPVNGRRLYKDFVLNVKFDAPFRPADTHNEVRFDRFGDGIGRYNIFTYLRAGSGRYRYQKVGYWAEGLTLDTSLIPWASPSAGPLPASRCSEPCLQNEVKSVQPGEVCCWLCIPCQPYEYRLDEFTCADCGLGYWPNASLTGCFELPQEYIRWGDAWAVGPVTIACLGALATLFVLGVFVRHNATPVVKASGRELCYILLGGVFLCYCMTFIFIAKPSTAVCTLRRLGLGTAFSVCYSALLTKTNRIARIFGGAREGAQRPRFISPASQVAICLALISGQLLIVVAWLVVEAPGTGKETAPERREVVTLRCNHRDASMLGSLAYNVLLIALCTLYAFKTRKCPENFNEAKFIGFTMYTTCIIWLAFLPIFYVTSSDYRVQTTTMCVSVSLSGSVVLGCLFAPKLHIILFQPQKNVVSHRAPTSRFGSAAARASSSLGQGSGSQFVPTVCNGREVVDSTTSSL
Voltage-gated inwardly rectifying potassium channel KCNH2, sequence (Q12809 whole entry): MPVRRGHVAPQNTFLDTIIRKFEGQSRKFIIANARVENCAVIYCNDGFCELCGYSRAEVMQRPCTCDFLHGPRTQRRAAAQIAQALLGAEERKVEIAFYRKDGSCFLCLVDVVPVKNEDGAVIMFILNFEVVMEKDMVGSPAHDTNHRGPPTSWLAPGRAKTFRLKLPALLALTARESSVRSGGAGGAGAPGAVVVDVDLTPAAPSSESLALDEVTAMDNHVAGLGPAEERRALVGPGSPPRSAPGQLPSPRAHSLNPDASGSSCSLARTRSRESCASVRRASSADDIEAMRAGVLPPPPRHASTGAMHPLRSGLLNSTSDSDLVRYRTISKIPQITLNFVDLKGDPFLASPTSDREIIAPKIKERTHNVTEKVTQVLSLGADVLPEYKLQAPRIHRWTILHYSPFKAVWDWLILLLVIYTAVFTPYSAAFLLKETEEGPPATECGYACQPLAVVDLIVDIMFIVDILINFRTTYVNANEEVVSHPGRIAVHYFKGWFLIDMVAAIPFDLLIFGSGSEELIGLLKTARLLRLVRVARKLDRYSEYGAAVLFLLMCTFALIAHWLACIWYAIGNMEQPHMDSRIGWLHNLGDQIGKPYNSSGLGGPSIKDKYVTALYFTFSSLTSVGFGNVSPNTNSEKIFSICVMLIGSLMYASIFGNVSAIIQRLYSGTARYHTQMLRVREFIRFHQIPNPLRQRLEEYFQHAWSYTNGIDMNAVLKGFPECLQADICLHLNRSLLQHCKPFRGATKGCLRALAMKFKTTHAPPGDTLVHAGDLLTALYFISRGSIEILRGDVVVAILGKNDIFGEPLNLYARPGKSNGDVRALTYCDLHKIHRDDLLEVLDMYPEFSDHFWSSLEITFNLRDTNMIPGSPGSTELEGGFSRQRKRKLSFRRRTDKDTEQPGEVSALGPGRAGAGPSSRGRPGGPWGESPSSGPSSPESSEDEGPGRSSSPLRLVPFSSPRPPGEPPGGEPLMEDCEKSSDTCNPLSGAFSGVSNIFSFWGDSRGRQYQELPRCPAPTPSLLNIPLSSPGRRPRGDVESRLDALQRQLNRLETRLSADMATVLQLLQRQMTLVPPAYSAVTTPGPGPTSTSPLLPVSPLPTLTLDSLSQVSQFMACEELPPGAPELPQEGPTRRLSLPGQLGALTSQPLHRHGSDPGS
P-gp (ABCB1), sequence (P43245 whole entry): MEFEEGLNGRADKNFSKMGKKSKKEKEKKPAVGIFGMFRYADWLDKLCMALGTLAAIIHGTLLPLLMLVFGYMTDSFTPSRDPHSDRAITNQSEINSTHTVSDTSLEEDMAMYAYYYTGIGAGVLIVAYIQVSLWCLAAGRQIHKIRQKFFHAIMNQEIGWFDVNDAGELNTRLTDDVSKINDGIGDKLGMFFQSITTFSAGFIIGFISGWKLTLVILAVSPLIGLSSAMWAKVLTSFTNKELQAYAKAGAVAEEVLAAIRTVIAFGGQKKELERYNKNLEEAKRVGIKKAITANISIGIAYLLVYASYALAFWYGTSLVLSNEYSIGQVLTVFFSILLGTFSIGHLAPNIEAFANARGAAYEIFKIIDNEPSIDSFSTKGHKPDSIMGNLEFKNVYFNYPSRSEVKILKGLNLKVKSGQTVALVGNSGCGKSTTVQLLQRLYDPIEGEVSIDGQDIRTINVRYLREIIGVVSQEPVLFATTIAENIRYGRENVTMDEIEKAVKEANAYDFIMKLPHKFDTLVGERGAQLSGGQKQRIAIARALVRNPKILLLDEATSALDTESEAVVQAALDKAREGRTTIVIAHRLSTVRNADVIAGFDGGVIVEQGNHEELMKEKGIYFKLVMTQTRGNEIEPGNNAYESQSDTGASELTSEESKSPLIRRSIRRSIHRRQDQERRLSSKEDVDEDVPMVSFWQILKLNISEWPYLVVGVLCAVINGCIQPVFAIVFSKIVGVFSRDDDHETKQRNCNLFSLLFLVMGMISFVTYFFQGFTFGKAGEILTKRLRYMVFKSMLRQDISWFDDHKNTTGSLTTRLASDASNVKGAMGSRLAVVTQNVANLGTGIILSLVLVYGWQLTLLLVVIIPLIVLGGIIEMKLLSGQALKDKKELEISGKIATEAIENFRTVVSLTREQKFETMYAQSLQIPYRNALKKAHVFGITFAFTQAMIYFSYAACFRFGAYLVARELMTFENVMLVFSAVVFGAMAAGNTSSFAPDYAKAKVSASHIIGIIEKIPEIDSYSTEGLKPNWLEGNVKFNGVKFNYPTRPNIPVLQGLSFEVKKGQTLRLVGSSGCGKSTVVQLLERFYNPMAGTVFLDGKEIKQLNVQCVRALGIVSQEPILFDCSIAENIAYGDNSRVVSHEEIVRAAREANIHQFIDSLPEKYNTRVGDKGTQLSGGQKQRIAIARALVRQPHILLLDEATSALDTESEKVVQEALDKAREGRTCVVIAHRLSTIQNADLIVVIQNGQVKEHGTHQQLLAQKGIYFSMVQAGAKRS

pIC50 [1]	solubility ([2]; read-out: solubility) [µM]	Papp [3] [×10⁻⁶ cm/s]	solubility [2] [µM]	bioavailability [4] [%]	pEC50 [6]	Emax at 30 µM (PXR (NR1I2)) [%]	Structure (SMILES)	efflux ratio (P-gp (ABCB1))	pIC50 [5]
7.17	193 (≈ 77.5 µg/mL)	–	–	–	–	–	Cn1cc(-c2cc(C(N)=O)nc3cc(CN4CCOC(C(F)F)C4)ccc23)cn1 (racemic)	–	–
–	–	–	4 (≈ 1.51 µg/mL)	100	–	–	NC(=O)c1cc(-c2ccc(F)cc2)c2ccc(CN3C(=O)CCC3=O)cc2n1	–	–
7.39	< 2	28	–	–	–	–	NC(=O)c1cc(-c2ccc(F)cc2)c2ccc(C(N3CCOCC3)C(F)(F)F)cc2n1 (racemic)	–	4.95
< 5.30	46 (≈ 16.7 µg/mL)	30	–	–	–	–	Cc1ccn(-c2cc(C(N)=O)nc3cc(CN4C(=O)CCC4=O)ccc23)n1	18	< 4.22
–	3 (≈ 1.13 µg/mL)	30	–	–	< 4.52	49	Cc1cc(NCc2ccc3c(-c4ccc(F)cc4)cc(C(N)=O)nc3c2)no1	–	5.48

Structure (SMILES)	pIC50 [1]	solubility ([2]; read-out: solubility) [µM]	Papp [3] [×10⁻⁶ cm/s]	solubility [2] [µM]	bioavailability [4] [%]	pEC50 [6]	Emax at 30 µM (PXR (NR1I2)) [%]	efflux ratio (P-gp (ABCB1))	pIC50 [5]
CN1CC=C(c2cc(C(N)=O)nc3cc(CN4C(=O)CCC4=O)ccc23)CC1	5.39	203 (≈ 76.8 µg/mL)	38	–	–	–	–	19	–
